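Assay format: 96-well plates, 48-hour exposure. GI50: concentration for 50% inhibition of growth. At the TGI there is no net growth.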
Columns and labels:
Assay in all cases: NCI-60 cell line screen, 48 h
786-0 renal = test system: 786-0 renal
A498 renal = test system: A498 renal
A549 NSCLC = test system: A549 NSCLC
ACHN renal = test system: ACHN renal
BT-549 breast = test system: BT-549 breast
CAKI-1 renal = test system: CAKI-1 renal
CCRF-CEM leukemia = test system: CCRF-CEM leukemia
COLO 205 colon = test system: COLO 205 colon
DU-145 prostate = test system: DU-145 prostate
EKVX NSCLC = test system: EKVX NSCLC
HCC-2998 colon = test system: HCC-2998 colon
HCT-116 colon = test system: HCT-116 colon
HCT-15 colon = test system: HCT-15 colon
HL-60(TB) leukemia = test system: HL-60(TB) leukemia
HOP-62 NSCLC = test system: HOP-62 NSCLC
HOP-92 NSCLC = test system: HOP-92 NSCLC
HS 578T breast = test system: HS 578T breast
HT29 colon = test system: HT29 colon
IGROV1 ovarian = test system: IGROV1 ovarian
K-562 leukemia = test system: K-562 leukemia
KM12 colon = test system: KM12 colon
LOX IMVI melanoma = test system: LOX IMVI melanoma
M14 melanoma = test system: M14 melanoma
MALME-3M melanoma = test system: MALME-3M melanoma
MCF7 breast = test system: MCF7 breast
MDA-MB-231 breast = test system: MDA-MB-231 breast
MDA-MB-435 = test system: MDA-MB-435
MOLT-4 leukemia = test system: MOLT-4 leukemia
NCI-H226 lung = test system: NCI-H226 lung
NCI-H23 lung = test system: NCI-H23 lung
NCI-H460 lung = test system: NCI-H460 lung
NCI-H522 lung = test system: NCI-H522 lung
NCI/ADR-RES ovarian = test system: NCI/ADR-RES ovarian
OVCAR-3 ovarian = test system: OVCAR-3 ovarian
OVCAR-4 ovarian = test system: OVCAR-4 ovarian
OVCAR-5 ovarian = test system: OVCAR-5 ovarian
OVCAR-8 ovarian = test system: OVCAR-8 ovarian
PC-3 prostate = test system: PC-3 prostate
RXF 393 renal = test system: RXF 393 renal
SF-268 CNS = test system: SF-268 CNS
SF-295 CNS = test system: SF-295 CNS
SF-539 CNS = test system: SF-539 CNS
SK-MEL-2 melanoma = test system: SK-MEL-2 melanoma
SK-MEL-28 melanoma = test system: SK-MEL-28 melanoma
SK-MEL-5 melanoma = test system: SK-MEL-5 melanoma
SK-OV-3 ovarian = test system: SK-OV-3 ovarian
SN12C renal = test system: SN12C renal
SNB-19 CNS = test system: SNB-19 CNS
SNB-75 CNS = test system: SNB-75 CNS
SR leukemia = test system: SR leukemia
SW-620 colon = test system: SW-620 colon
T-47D breast = test system: T-47D breast
TK-10 renal = test system: TK-10 renal
U251 CNS = test system: U251 CNS
UACC-257 melanoma = test system: UACC-257 melanoma
UACC-62 melanoma = test system: UACC-62 melanoma
UO-31 renal = test system: UO-31 renal

CCCNNC(=O)c1ccc(-c2ccc(NC(=O)CCCCCCC(=O)N[C@H](C(=O)N3C[C@H](O)C[C@H]3C(=O)N[C@@H](C)c3ccc(-c4scnc4C)cc3)C(C)(C)C)cc2)cc1
GI50 (786-0 renal): 5.02 µM
TGI (786-0 renal): > 100 µM
GI50 (A498 renal): 1.41 µM
TGI (A498 renal): 4.36 µM
GI50 (A549 NSCLC): > 95.1 µM
TGI (A549 NSCLC): > 100 µM
GI50 (ACHN renal): > 100 µM
TGI (ACHN renal): > 100 µM
GI50 (BT-549 breast): 5.29 µM
TGI (BT-549 breast): > 100 µM
GI50 (CAKI-1 renal): 7.41 µM
TGI (CAKI-1 renal): > 100 µM
GI50 (CCRF-CEM leukemia): 0.357 µM
TGI (CCRF-CEM leukemia): > 100 µM
GI50 (COLO 205 colon): 0.785 µM
TGI (COLO 205 colon): 3.25 µM
GI50 (DU-145 prostate): 2.01 µM
TGI (DU-145 prostate): > 100 µM
GI50 (EKVX NSCLC): > 36.6 µM
TGI (EKVX NSCLC): > 100 µM
GI50 (HCC-2998 colon): 2.05 µM
TGI (HCC-2998 colon): 11.1 µM
GI50 (HCT-116 colon): 0.41 µM
TGI (HCT-116 colon): 5.28 µM
GI50 (HCT-15 colon): > 100 µM
TGI (HCT-15 colon): > 100 µM
GI50 (HL-60(TB) leukemia): 0.394 µM
TGI (HL-60(TB) leukemia): > 100 µM
GI50 (HOP-62 NSCLC): 2.46 µM
TGI (HOP-62 NSCLC): > 100 µM
GI50 (HOP-92 NSCLC): 0.258 µM
TGI (HOP-92 NSCLC): 2.14 µM
GI50 (HS 578T breast): 1.91 µM
TGI (HS 578T breast): > 100 µM
GI50 (HT29 colon): 0.893 µM
TGI (HT29 colon): > 100 µM
GI50 (IGROV1 ovarian): 0.442 µM
TGI (IGROV1 ovarian): > 100 µM
GI50 (K-562 leukemia): 0.524 µM
TGI (K-562 leukemia): > 100 µM
GI50 (KM12 colon): 3.34 µM
TGI (KM12 colon): > 100 µM
GI50 (LOX IMVI melanoma): 0.0387 µM
TGI (LOX IMVI melanoma): 1.08 µM
GI50 (M14 melanoma): 2.86 µM
TGI (M14 melanoma): > 100 µM
GI50 (MALME-3M melanoma): 0.457 µM
TGI (MALME-3M melanoma): > 20.3 µM
GI50 (MCF7 breast): 0.407 µM
TGI (MCF7 breast): > 100 µM
GI50 (MDA-MB-231 breast): 1.37 µM
TGI (MDA-MB-231 breast): > 65.1 µM
GI50 (MDA-MB-435): 0.848 µM
TGI (MDA-MB-435): > 39.3 µM
GI50 (MOLT-4 leukemia): 0.41 µM
TGI (MOLT-4 leukemia): > 100 µM
GI50 (NCI-H226 lung): 9.28 µM
TGI (NCI-H226 lung): > 100 µM
GI50 (NCI-H23 lung): 2.22 µM
TGI (NCI-H23 lung): > 100 µM
GI50 (NCI-H460 lung): 2.63 µM
TGI (NCI-H460 lung): > 100 µM
GI50 (NCI-H522 lung): 1.12 µM
TGI (NCI-H522 lung): > 100 µM
GI50 (NCI/ADR-RES ovarian): > 100 µM
TGI (NCI/ADR-RES ovarian): > 100 µM
GI50 (OVCAR-3 ovarian): 0.917 µM
TGI (OVCAR-3 ovarian): 12.7 µM
GI50 (OVCAR-4 ovarian): > 100 µM
TGI (OVCAR-4 ovarian): > 100 µM
GI50 (OVCAR-5 ovarian): 1.88 µM
TGI (OVCAR-5 ovarian): > 100 µM
GI50 (OVCAR-8 ovarian): 2.98 µM
TGI (OVCAR-8 ovarian): > 100 µM
GI50 (PC-3 prostate): 1.25 µM
TGI (PC-3 prostate): > 100 µM
GI50 (RXF 393 renal): 0.465 µM
TGI (RXF 393 renal): 2.37 µM
GI50 (SF-268 CNS): 3.63 µM
TGI (SF-268 CNS): > 100 µM
GI50 (SF-295 CNS): 5.97 µM
TGI (SF-295 CNS): > 100 µM
GI50 (SF-539 CNS): 2.05 µM
TGI (SF-539 CNS): > 100 µM
GI50 (SK-MEL-2 melanoma): 2.7 µM
TGI (SK-MEL-2 melanoma): > 100 µM
GI50 (SK-MEL-28 melanoma): 0.599 µM
TGI (SK-MEL-28 melanoma): > 100 µM
GI50 (SK-MEL-5 melanoma): 2.08 µM
TGI (SK-MEL-5 melanoma): 8.47 µM
GI50 (SK-OV-3 ovarian): 5.66 µM
TGI (SK-OV-3 ovarian): > 100 µM
GI50 (SN12C renal): 4.21 µM
TGI (SN12C renal): > 100 µM
GI50 (SNB-19 CNS): 2.62 µM
TGI (SNB-19 CNS): > 47.6 µM
GI50 (SNB-75 CNS): 1.8 µM
TGI (SNB-75 CNS): > 100 µM
GI50 (SR leukemia): 0.386 µM
TGI (SR leukemia): > 100 µM
GI50 (SW-620 colon): 1.28 µM
TGI (SW-620 colon): 9.26 µM
GI50 (T-47D breast): 0.345 µM
TGI (T-47D breast): > 100 µM
GI50 (TK-10 renal): 1.8 µM
TGI (TK-10 renal): > 100 µM
GI50 (U251 CNS): 1.03 µM
TGI (U251 CNS): 8.46 µM
GI50 (UACC-257 melanoma): 0.845 µM
TGI (UACC-257 melanoma): > 100 µM
GI50 (UACC-62 melanoma): 1.44 µM
TGI (UACC-62 melanoma): 6.94 µM
GI50 (UO-31 renal): > 100 µM
TGI (UO-31 renal): > 100 µM

From PubChem BioAssay (NCI)
